Active and inactive are the calls of the source.
Tests used:
[1] = target: T1, Heat shock factor protein 1 (Mus musculus, UniProt P38532); test: decrease of HSF1-responsive luciferase luminescence – cell-based, NIH3T3, dose retest, confirmation (AID 2382); type: functional;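 also: NIH3T3 fibroblasts with HSF1-driven luciferase reporter stressed by proteasome inhibitor MG132; luminescence from HSF1-driven luciferase expression after 8 hours of MG132 stress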
T1 sequence (P38532 whole entry): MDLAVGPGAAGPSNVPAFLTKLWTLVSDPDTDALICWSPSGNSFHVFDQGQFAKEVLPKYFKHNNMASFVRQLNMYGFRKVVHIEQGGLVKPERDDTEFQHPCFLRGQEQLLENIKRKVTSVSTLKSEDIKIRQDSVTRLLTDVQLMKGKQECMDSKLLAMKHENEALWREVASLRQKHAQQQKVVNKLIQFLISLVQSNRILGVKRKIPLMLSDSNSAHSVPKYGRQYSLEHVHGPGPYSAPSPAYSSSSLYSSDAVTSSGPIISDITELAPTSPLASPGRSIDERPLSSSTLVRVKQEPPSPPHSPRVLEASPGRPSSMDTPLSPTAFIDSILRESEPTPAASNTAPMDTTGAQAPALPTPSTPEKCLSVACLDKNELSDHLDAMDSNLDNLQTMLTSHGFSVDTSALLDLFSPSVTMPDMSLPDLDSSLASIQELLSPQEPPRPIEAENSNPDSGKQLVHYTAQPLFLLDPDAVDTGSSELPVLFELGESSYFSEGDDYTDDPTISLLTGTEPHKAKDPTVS

Cytochrome P450 2C19 = Cytochrome P450 2C19 (Homo sapiens, UniProt P33261); test: Cytochrome panel assay with activity outcomes. Panel member name: p450-cyp2c19 Compounds with AC50 equal or less than 10 uM are considered active; type: functional; settings: read-out: AC50
Chain of Cytochrome P450 2C19 (P33261 whole entry): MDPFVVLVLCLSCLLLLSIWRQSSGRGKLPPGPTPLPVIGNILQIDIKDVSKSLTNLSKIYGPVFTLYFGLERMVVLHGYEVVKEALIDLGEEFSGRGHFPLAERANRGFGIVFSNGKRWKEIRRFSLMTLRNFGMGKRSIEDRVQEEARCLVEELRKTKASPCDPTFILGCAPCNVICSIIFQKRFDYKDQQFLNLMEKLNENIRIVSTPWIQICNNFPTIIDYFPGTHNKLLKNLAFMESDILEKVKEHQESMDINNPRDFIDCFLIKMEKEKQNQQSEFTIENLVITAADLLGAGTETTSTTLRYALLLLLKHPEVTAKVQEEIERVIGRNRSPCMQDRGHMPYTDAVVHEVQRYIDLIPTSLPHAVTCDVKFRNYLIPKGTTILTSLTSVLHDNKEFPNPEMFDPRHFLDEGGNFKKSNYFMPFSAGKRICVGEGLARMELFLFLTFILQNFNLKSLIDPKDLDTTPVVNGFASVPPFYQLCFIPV

[2] = Trypanosoma cruzi growth suppression in host cells – NIH3T3 host cells, beta-gal luminescence, confirmation (AID 2044); type: functional, cell-based;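 also: intracellular parasites grown in NIH/3T3 mouse fibroblasts as host cells; luminescent beta-galactosidase reporter signal from transgenic T. cruzi replicating inside host cells; inhibitors lower the luminescence signal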
[3] = NIH3T3 cell viability loss – ATP luminescence, mouse fibroblasts, counter-screen, dose response (AID 2010); type: functional, cell-based;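 also: cells exposed to compound for about 90 hours before reading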
Streptococcus = test: GAS UMAA2166 growth inhibition – luminescence, BacTiterGlo, counter-screen for streptokinase expression inhibitor project, dose response (AID 1915); type: functional, organism-based;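 also: potency for reduction of bacterial viability or growth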
[4] = Luminescence Cell-Based Dose Retest to Confirm Inhibitors of Cancer Stem Cells. [Related pubchem assays (depositor defined):AID2717, AID2721]; type: functional; settings: Homo sapiens
[5] = system: Streptococcus sp. 'group A'; test: Streptococcus pyogenes SK(-)GAS viability under kanamycin – luminescence, BacTiterGlo, confirmation, counter-screen for streptokinase expression inhibitor project, dose response (AID 1900); type: functional, organism-based
Streptokinase A = target: T2, Streptokinase A (Streptococcus pyogenes serotype M1, UniProt P10520); test: viability-normalized secreted streptokinase activity reduction – plasminogen activation absorbance, OD405, dose response (AID 1914); type: functional, Streptococcus pyogenes M1 GAS;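 also: secreted streptokinase activity via plasminogen activation per viability signal from cell pellet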
T2 sequence (P10520 whole entry): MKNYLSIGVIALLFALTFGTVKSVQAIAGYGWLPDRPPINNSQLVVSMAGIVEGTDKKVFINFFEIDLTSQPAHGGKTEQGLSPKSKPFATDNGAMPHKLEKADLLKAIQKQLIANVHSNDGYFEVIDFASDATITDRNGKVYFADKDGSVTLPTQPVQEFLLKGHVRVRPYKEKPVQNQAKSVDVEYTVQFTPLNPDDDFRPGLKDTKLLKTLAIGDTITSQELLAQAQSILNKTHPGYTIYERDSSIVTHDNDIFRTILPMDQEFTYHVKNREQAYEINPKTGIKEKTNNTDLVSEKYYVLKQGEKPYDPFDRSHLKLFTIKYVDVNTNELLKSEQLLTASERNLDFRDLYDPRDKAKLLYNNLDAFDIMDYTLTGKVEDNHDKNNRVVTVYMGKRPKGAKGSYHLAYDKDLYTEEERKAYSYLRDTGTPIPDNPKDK

[6] = alpha-synuclein stem-loop luciferase translation blockers – H4 neuroglioma cells, luminescence, confirmation (AID 1988); type: functional, cell-based
[7] = luciferase reporter signal suppression in cells – H4 neuroglioma cells, luminescence, dose response (AID 1990); type: functional, cell-based
[8] = Luminescence Cell-Based Dose Response HTS to Identify Inhibitors of 5'UTR Stem-Loop Driven Prion Protein mRNA Translation in H4 Neuroglioblastoma Cells. [Related pubchem assays: 1827 (Project Summary), 1813 (Primary HTS)]; type: functional

CC(C)Oc1cccc(C(=O)NC(=S)Nc2ccccc2)c1
EC50 [1]: > 195 µM (not active)

O=C(c1cccc(S(=O)(=O)N2CCOCC2)c1)N(Cc1nnc(-c2ccccc2Cl)o1)C1CC1
EC50 [1]: > 195 µM (not active)

CCN=C(S)NC1CC2CCCC(C1)N2Cc1ccco1 (stereo not drawn)
AC50 (Cytochrome P450 2C19): 14.1 µM (inconclusive)

CCOC(=O)C1(Cc2ccccc2)CCCN(CCCn2cccn2)C1 (stereo not drawn)
EC50 [1]: > 195 µM (not active)

O=C(Nc1cccc(S(=O)(=O)c2cccc(NC(=O)c3ccco3)c2)c1)c1ccco1
EC50 [2]: 0.869 µM (active) | EC50 [3]: > 60 µM (not active)

CN(Cc1ccccc1)Cc1c[nH]c2ccccc12
EC50 [2]: 0.972 µM (active) | EC50 [3]: > 60 µM (not active)

CCCc1nc2ccccc2c(C(=O)OCC(=O)Nc2ccc(S(=O)(=O)N3CCOCC3)cc2)c1CC
EC50 (Streptococcus): 52.8 µM (active) | AC50 [4]: 4.04 µM (active) | EC50 [5]: 18.1 µM (active) | EC50 (Streptokinase A): 26 µM (active)

Cc1cc2c(c(=O)n1Cc1ccc3c(c1)OCO3)C(c1cccnc1)C(C#N)=C(N)O2 (stereo not drawn)
EC50 [2]: 1.94 µM (active) | EC50 [3]: > 60 µM (not active)

c1ccc(CCn2nnnc2C(c2cccnc2)N2CCN(c3ccccc3)CC2)cc1 (stereo not drawn)
EC50 [2]: 0.263 µM (active) | EC50 [3]: 4.77 µM (active)

COc1ccc(/C=C/C(=O)c2ccccc2)cc1Cn1nnc2ccccc21
AC50 [4]: 4.11 µM (active)

N#C/C(=C(/O)COc1ccccc1)c1nc2ccccc2s1
EC50 (Streptococcus): > 150 µM (not active) | EC50 [5]: 26.7 µM (active) | EC50 (Streptokinase A): 7.55 µM (active)

CC(=O)c1cccc(NC(=O)C2CC(=O)N(CCc3ccccc3)C2)c1 (stereo not drawn)
EC50 [1]: > 195 µM (not active)

COc1ccc2nc(N=C(N)N=C(S)Nc3c(C)cccc3C)nc(C)c2c1
EC50 (Streptococcus): > 150 µM (not active) | EC50 [5]: 21.7 µM (active)

COc1ccc2nc(N=C(N)NC(=S)Nc3c(C)cccc3C)nc(C)c2c1
EC50 (Streptokinase A): 42 µM (inconclusive)

Cc1cc(Nc2nc(Cl)c(Cl)cc2Cl)n(-c2ccccc2)n1
AC50 [4]: 3.95 µM (active)

Cc1ccc(NC(=O)N(Cc2cccnc2)Cc2ccco2)cc1C
EC50 [2]: 1.39 µM (active) | EC50 [3]: > 60 µM (not active)

COc1ccc(CNC(=O)CCCNC(=O)c2ccc(Cl)cc2)cc1OC
EC50 [1]: > 195 µM (not active)

COc1ccc(OC)c(N(CC(=O)Nc2ccccc2)S(C)(=O)=O)c1
EC50 [1]: > 195 µM (not active)

CC(C)c1ccccc1OCC(O)CN(CC(O)COc1cccc2ccccc12)C(C)C (stereo not drawn)
EC50 (Streptococcus): 7.04 µM (active) | EC50 [2]: 3.45 µM (active) | EC50 [3]: > 30 µM (not active) | AC50 [4]: 2.82 µM (active) | EC50 [5]: 4.05 µM (active)

Cn1c(CCC(=O)Nc2ccc(N3CCOCC3)cc2)nc(=O)c2ccccc21
AC50 (Cytochrome P450 2C19): 35.5 µM (inconclusive)

c1cnc2ccc(C(c3nnnn3C3CCCCC3)N3CCN(C4CCCCC4)CC3)cc2c1 (stereo not drawn)
EC50 [2]: 8.47 µM (active) | EC50 [3]: 4.37 µM (active)

O=C(Nc1cccc(Cl)c1)Nc1ccccc1-n1ccnc1
EC50 [2]: 0.461 µM (active) | EC50 [3]: > 60 µM (not active)

Cc1ccc2c(c1)C1CN(C)CCC1N2C(=O)c1cccc(S(=O)(=O)N2CC(C)CC(C)C2)c1 (stereo not drawn)
EC50 [2]: 0.216 µM (active) | EC50 [3]: > 30 µM (not active)

Cc1ccc(S(=O)(=O)N(C)c2ccc(OCc3cccc(C)c3)cc2)cc1
AC50 [4]: 0.898 µM (active)

CC(C)c1ccc2c(c1)c(SC(C)(C)C)c(CC(C)(C)C(=O)O)n2Cc1ccc(Cl)cc1
EC50 [5]: 1.07 µM (active) | EC50 (Streptokinase A): 1.24 µM (active)

NC(=O)N/N=C/c1ccc2cccc(OCc3ccccc3)c2n1
EC50 [6]: 61 µM (active) | EC50 [7]: 17.8 µM (active) | EC50 [8]: > 120 µM (not active)

C/C(=N\NC(=O)CN1CCN(Cc2ccccc2)CC1)c1cccs1
EC50 [1]: > 195 µM (not active)

Fc1ccc(CO/N=C/C2=C(Cl)c3ccccc3CC2)cc1
EC50 (Streptococcus): > 150 µM (not active) | EC50 [1]: > 195 µM (not active) | EC50 [5]: 6.39 µM (active) | EC50 (Streptokinase A): 13.5 µM (active)

CCO/C(O)=C(/C=N/c1ccccc1)[N+](=O)[O-]
AC50 (Cytochrome P450 2C19): 14.1 µM (inconclusive)

— ChEMBL document CHEMBL1201862, “PubChem BioAssay data set” (2004)
